Literature values as cited in PMC6856260 (Clinical Pharmacokinetics, 2019).
Where two headings read alike, the source gives them in different places.

Tests used:
[1] = co-formulated with 5-CNAC
[2] = post-dose fasting periods of 15, 30, 60 and 120 min; oral, co-formulated with SNAC

| Substance | reduction of exposure of salmon calcitonin ([1]; meal 10 min after oral dosing versus 60 min post-dose fasting) | reduction of exposure of salmon calcitonin ([1]; meal 10 min after oral dosing versus 4 h post-dose fasting) [%] | effect of increasing post-dose fasting period on exposure (in words) [2] |
| --- | --- | --- | --- |
| salmon calcitonin | up to 30% | 41 |  |
| semaglutide: oral semaglutide co-formulated with SNAC |  |  | increasing semaglutide exposure |
